Test results reported in patent publication US20080248993A1, “Modified Beta Thymosin Peptides” (REGENERX BIOPHARMACEUTICALS, INC., priority 2005, published 2008).
Read-outs that look alike come from different tables or passages of the source.

Target: G-actin
Assay: G-actin binding affinity (ultrafiltration of free and bound peptide, HPLC of the ultrafiltrate)
Experimental: Tests were conducted to determine the G-actin binding affinity of Tβ4^leu as compared to native Tβ4. The experiments were repeated twice and in triplicate, with the results shown below (averages from 3 experiments):
The lower values in the case of Tβ4 are caused by its sulfoxide. Tβ4 plus Tβ4-sulfoxide was determined by amino acid analysis. […] Thus the real concentration of Tβ4 in the tests are lower and the decrease of free Tβ4 is higher when compared to non-oxidized Tβ4. The decrease of free beta-thymosin was measured. G-actin bound Tβ4 and free Tβ4 were separated by ultrafiltration and the concentration of Tβ4 in the ultrafiltrate was measured by HPLC. The procedure utilized is described in Huff et al., FEPS Letters, 414:39-44 (1997).

[1] = First determination, averages from 3 experiments, read-out: Kd, G-actin binding
[2] = Second determination, averages from 3 experiments, read-out: Kd, G-actin binding

## Tβ4: Native 43 amino acid, 4.9 kDa polypeptide with methionine at position 6; comparator
Example 8, comparison of Tβ4-sulfone with Tβ4 and Tβ4-sulfoxide, read-out: Kd value of the complex with G-actin
  Kd: 1000 nM
[1]
  Kd: 1280 nM
[2]
  Kd: 540 nM

## Tβ4^leu: Thymosin β4 with leucine substituted for methionine at position 6 (SDKPDLAEIEKFDKSKLKKTETQEKNPLPSKETIEQEKQAGES; not fully specified; Thymosin beta-4; UniProt P62328 2-44, looked up, variant M6L)
[1]
  Kd: 1360 nM
[2]
  Kd: 990 nM
Qualitative statement
  G-actin binding, in words: substantial actin-binding activity
